# Assay results reported in patent US20140113904A1, “TREATMENT OF CANCER WITH TOR KINASE INHIBITORS” (SIGNAL PHARMACEUTICALS, LLC, priority 2012, published 2014).
# Read-outs that look alike come from different tables or passages of the source.
# Assays:
# [1] = tested on: pS6RP; assay: pS6RP in PC3 tumors, MSD (Compound 2); format: in vivo, SCID mice; settings: Mus musculus; for inhibition at 0.1 mg/kg: 0.1 mg/kg single oral dose; for inhibition at 0.3 mg/kg: 0.3 mg/kg single oral dose
# [2] = tested on: pAKT (S473); assay: pAKT (S473) in PC3 tumors, MSD (Compound 2); format: in vivo, SCID mice; settings: Mus musculus; for inhibition at 0.1 mg/kg: 0.1 mg/kg single oral dose; for inhibition at 0.3 mg/kg: 0.3 mg/kg single oral dose; for inhibition at 10 mg/kg: 10 mg/kg single oral dose
# [3] = tested on: AKT (T308); assay: Phospho-AKT (T308) in PC-3 cell lysates, MSD (Compound 2); format: cell-based; settings: Homo sapiens; PC-3, 1 hour; read-out: PDK1 AKT (T308) IC50
# Description: The direct substrate for mTORC1 was 4E-BP1(T46) and the indirect downstream substrate was S6RP (S235/S236). The direct substrate for mTORC2 was AKT (S473) and the indirect downstream substrates measured were GSK3β(S9) and PRAS40 (T246). Additionally, the phosphorylation status of AKT (T308), a phosphorylation site for PDK1, was monitored. Concentration-response curves were plotted and IC50 values determined. Cells were plated in 96-well flat bottom plates at the required density (PC-3 cells/well) and the cells were allowed to equilibrate at 37° C., 5% CO2 overnight. […] After the incubation period, the culture media was removed carefully with an aspirator. The plate was placed on ice and 50 μL of 1× Tris Lysis Buffer was added to each well. The plate was placed on a shaker at 4° C. for 1 hour to lyse the cells. At that point, the plate was either frozen at -80° C. for later analysis or immediately assayed for phosphoproteins as described below. To monitor interassay variability, a reference standard was included in the assay for PC-3 cells and the coefficient of variation for assay of […]) was 9.3% (n=50) and for assay of p-AKT (S473) was 28.6% (n=50). The assay plate was incubated with 150 μL of MSD Blocking Buffer for 1 hour with shaking at room temperature. […] Then 150 μL of 1×MSD Read Buffer T was added to each well. The plate was read on the SECTOR Imager plate reader.
# [4] = 0.5 h, read-out: PD Marker Inhibition (%) pS6RP
# [5] = 1 h, read-out: PD Marker Inhibition (%) pS6RP
# [6] = 3 h, read-out: PD Marker Inhibition (%) pS6RP
# [7] = 6 h, read-out: PD Marker Inhibition (%) pS6RP
# [8] = 10 h, read-out: PD Marker Inhibition (%) pS6RP
# [9] = 24 h, read-out: PD Marker Inhibition (%) pS6RP
# [10] = 0.5 h, read-out: PD Marker Inhibition (%) pAKT (S473)
# [11] = 1 h, read-out: PD Marker Inhibition (%) pAKT (S473)
# [12] = 3 h, read-out: PD Marker Inhibition (%) pAKT (S473)
# [13] = 6 h, read-out: PD Marker Inhibition (%) pAKT (S473)
# [14] = 10 h, read-out: PD Marker Inhibition (%) pAKT (S473)
# [15] = 24 h, read-out: PD Marker Inhibition (%) pAKT (S473)
structure (smiles),measurement,setting,value
"CCN1C(=O)CNc2ncc(-c3ccc(-c4nc[nH]n4)nc3C)nc21 [Compound 2, 1-ethyl-7-(2-methyl-6-(1H-1,2,4-triazol-3-yl)pyridin-3-yl)-3,4-dihydropyrazino[2,3-b]pyrazin-2(1H)-one]",inhibition at 0.1 mg/kg,[1]; [4],45.7%
same,inhibition at 0.1 mg/kg,[1]; [5],38.2%
same,inhibition at 0.1 mg/kg,[1]; [6],27.2%
same,inhibition at 0.1 mg/kg,[1]; [7],23.3%
same,inhibition at 0.1 mg/kg,[1]; [8],17.6%
same,inhibition at 0.1 mg/kg,[1]; [9],0%
same,inhibition at 0.3 mg/kg,[1]; [4],69.8%
same,inhibition at 0.3 mg/kg,[1]; [5],79.6%
same,inhibition at 0.3 mg/kg,[1]; [6],73.5%
same,inhibition at 0.3 mg/kg,[1]; [7],67.3%
same,inhibition at 0.3 mg/kg,[1]; [8],57.9%
same,inhibition at 0.3 mg/kg,[1]; [9],33.3%
same,inhibition at 1 mg/kg,"[1]; 1 mg/kg single dose, through 10 hours, read-out: inhibition of pS6RP in tumor",~80%
same,inhibition at 1 mg/kg,"[1]; 1 mg/kg single oral dose, 1 h, read-out: PD Marker Inhibition (%) pS6RP",84.6%
same,inhibition at 1 mg/kg,"[1]; 1 mg/kg single oral dose, 3 h, read-out: PD Marker Inhibition (%) pS6RP",89.5%
same,inhibition at 1 mg/kg,"[1]; 1 mg/kg single oral dose, 6 h, read-out: PD Marker Inhibition (%) pS6RP",82.8%
same,inhibition at 1 mg/kg,"[1]; 1 mg/kg single oral dose, 10 h, read-out: PD Marker Inhibition (%) pS6RP",78.7%
same,inhibition at 1 mg/kg,"[1]; 1 mg/kg single oral dose, 24 h, read-out: PD Marker Inhibition (%) pS6RP",0%
same,inhibition at 10 mg/kg,"[1]; 10 mg/kg single dose, through 24 hours, read-out: inhibition of both PD markers (pS6RP, pAKT (S473))",≥ 80%
same,inhibition at 10 mg/kg,"[1]; 10 mg/kg single oral dose, 1 h, read-out: PD Marker Inhibition (%) pS6RP",85.3%
same,inhibition at 10 mg/kg,"[1]; 10 mg/kg single oral dose, 3 h, read-out: PD Marker Inhibition (%) pS6RP",91.3%
same,inhibition at 10 mg/kg,"[1]; 10 mg/kg single oral dose, 6 h, read-out: PD Marker Inhibition (%) pS6RP",93.5%
same,inhibition at 10 mg/kg,"[1]; 10 mg/kg single oral dose, 10 h, read-out: PD Marker Inhibition (%) pS6RP",93.7%
same,inhibition at 10 mg/kg,"[1]; 10 mg/kg single oral dose, 24 h, read-out: PD Marker Inhibition (%) pS6RP",93.2%
same,inhibition at 0.1 mg/kg,[2]; [10],50%
same,inhibition at 0.1 mg/kg,[2]; [11],25.1%
same,inhibition at 0.1 mg/kg,[2]; [12],15.3%
same,inhibition at 0.1 mg/kg,[2]; [13],14.2%
same,inhibition at 0.1 mg/kg,[2]; [14],2.5%
same,inhibition at 0.1 mg/kg,[2]; [15],0%
same,inhibition at 0.3 mg/kg,[2]; [10],77.2%
same,inhibition at 0.3 mg/kg,[2]; [11],70.7%
same,inhibition at 0.3 mg/kg,[2]; [12],52.9%
same,inhibition at 0.3 mg/kg,[2]; [13],42.2%
same,inhibition at 0.3 mg/kg,[2]; [14],23%
same,inhibition at 0.3 mg/kg,[2]; [15],9.6%
same,inhibition at 1 mg/kg,"[2]; 1 mg/kg single dose, through 10 hours, read-out: inhibition of pAKT (S473) in tumor",~65%
same,inhibition at 1 mg/kg,"[2]; 1 mg/kg single oral dose, 1 h, read-out: PD Marker Inhibition (%) pAKT (S473)",79.6%
same,inhibition at 1 mg/kg,"[2]; 1 mg/kg single oral dose, 3 h, read-out: PD Marker Inhibition (%) pAKT (S473)",65.1%
same,inhibition at 1 mg/kg,"[2]; 1 mg/kg single oral dose, 6 h, read-out: PD Marker Inhibition (%) pAKT (S473)",69.9%
same,inhibition at 1 mg/kg,"[2]; 1 mg/kg single oral dose, 10 h, read-out: PD Marker Inhibition (%) pAKT (S473)",65.5%
same,inhibition at 1 mg/kg,"[2]; 1 mg/kg single oral dose, 24 h, read-out: PD Marker Inhibition (%) pAKT (S473)",19%
same,inhibition at 10 mg/kg,[2]; [11],87.6%
same,inhibition at 10 mg/kg,[2]; [12],88.3%
same,inhibition at 10 mg/kg,[2]; [13],86.9%
same,inhibition at 10 mg/kg,[2]; [14],86%
same,inhibition at 10 mg/kg,[2]; [15],79.8%
same,IC50,[3],48 nM
